Measured values reported in patent US10526327B2, “Histone demethylase inhibitors” (CELGENE QUANTICEL RESEARCH, INC., priority 2013, dated 2020).

Biological target: T1, Jarid1B (Homo sapiens, UniProt Q9UGL1)
T1 construct: purchased BPS Bioscience or custom made by MolecularThroughput 50121
T1 sequence (Q9UGL1 2-751): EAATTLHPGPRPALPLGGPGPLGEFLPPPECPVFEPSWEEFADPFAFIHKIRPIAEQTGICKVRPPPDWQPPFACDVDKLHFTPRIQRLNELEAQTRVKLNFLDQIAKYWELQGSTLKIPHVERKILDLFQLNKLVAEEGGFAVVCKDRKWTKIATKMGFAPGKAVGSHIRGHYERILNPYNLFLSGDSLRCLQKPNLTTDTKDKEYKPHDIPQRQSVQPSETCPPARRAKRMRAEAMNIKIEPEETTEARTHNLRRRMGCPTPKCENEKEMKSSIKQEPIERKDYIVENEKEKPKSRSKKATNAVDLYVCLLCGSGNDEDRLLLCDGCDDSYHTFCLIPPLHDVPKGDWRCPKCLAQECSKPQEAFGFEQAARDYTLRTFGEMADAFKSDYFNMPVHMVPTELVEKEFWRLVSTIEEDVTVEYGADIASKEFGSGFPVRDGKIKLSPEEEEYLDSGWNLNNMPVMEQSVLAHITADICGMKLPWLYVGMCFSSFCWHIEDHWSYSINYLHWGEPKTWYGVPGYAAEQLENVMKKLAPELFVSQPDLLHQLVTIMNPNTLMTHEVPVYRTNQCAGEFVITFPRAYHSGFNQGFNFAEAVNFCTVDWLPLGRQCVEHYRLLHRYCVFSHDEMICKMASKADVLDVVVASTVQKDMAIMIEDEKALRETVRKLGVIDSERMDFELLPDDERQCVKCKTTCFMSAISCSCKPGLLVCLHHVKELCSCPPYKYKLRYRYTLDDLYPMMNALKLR
Assay: Jarid1B in vitro enzyme inhibition assay (TR-FRET)
Format: biochemical
Summary of the method: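 Jarid1B (AA 2-751, baculovirus-expressed) at 0.8 nM with 300 nM biotin-H3K4me3 peptide and 2 μM α-ketoglutarate in HEPES pH 7.3 with ascorbate and Fe(II), 30 min at room temperature. Stopped with EDTA; H3K4me1-2 product detected by TR-FRET (665/615 ratio) and IC50 fitted from 11-point dilutions.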

Row | SMILES | IC50
1 | CCS(=O)(=O)N1CC[C@@H](n2cc(Oc3nc(O)c4ccncc4n3)cn2)C1 [Example 126, 2-({1-[(3R)-1-(ethanesulfonyl)pyrrolidin-3-yl]-1H-pyrazol-4-yl}oxy)pyrido[3,4-d]pyrimidin-4-ol] | ≤ 100 nM
2 | CC(=O)N1CC[C@@H](n2cc(Oc3nc(O)c4ccncc4n3)cn2)C1 [Example 129, 1-[(3R)-3-[4-({4-hydroxypyrido[3,4-d]pyrimidin-2-yl}oxy)-1H-pyrazol-1-yl]pyrrolidin-1-yl]ethan-1-one] | ≤ 100 nM
3 | Oc1nc(Oc2cnn([C@H]3CCNC3)c2)nc2cnccc12 [Example 135, 2-({1-[(3S)-pyrrolidin-3-yl]-1H-pyrazol-4-yl}oxy)pyrido[3,4-d]pyrimidin-4-ol] | ≤ 100 nM
4 | CCC(c1ccccc1)n1cc(Oc2nc(O)c3ccncc3n2)cn1 (stereo not shown) [Example 115, 2-{[1-(1-phenylpropyl)-1H-pyrazol-4-yl]oxy}pyrido[3,4-d]pyrimidin-4-ol] | ≤ 100 nM
5 | Oc1nc(Oc2cnn(C3CCCN(c4ccc(F)cc4)C3)c2)nc2cnccc12 (stereo in doubt) [Example 169, 2-({1-[(3R)-1-(4-fluorophenyl)piperidin-3-yl]-1H-pyrazol-4-yl}oxy)pyrido[3,4-d]pyrimidin-4-ol] | ≤ 100 nM
6 | Oc1nc(Oc2cnn(Cc3cccc(Cl)c3)c2)nc2cnccc12 [Example 122, 2-({1-[(3-chlorophenyl)methyl]-1H-pyrazol-4-yl}oxy)pyrido[3,4-d]pyrimidin-4-ol] | ≤ 100 nM
7 | O=S(=O)(c1ccccc1)N1CCC[C@H](n2cc(Oc3nc(O)c4ccncc4n3)cn2)C1 [Example 163, 2-({1-[(3S)-1-(benzenesulfonyl)piperidin-3-yl]-1H-pyrazol-4-yl}oxy)pyrido[3,4-d]pyrimidin-4-ol] | ≤ 100 nM
8 | O=C(c1ccccc1)N1CC[C@H](n2cc(Oc3nc(O)c4ccncc4n3)cn2)C1 [Example 142, 2-({1-[(3S)-1-benzoylpyrrolidin-3-yl]-1H-pyrazol-4-yl}oxy)pyrido[3,4-d]pyrimidin-4-ol] | ≤ 100 nM
9 | Cn1cnc(-c2nccc3c(O)nc(OCc4ccccc4C(F)(F)F)nc23)c1 [Example 107, 8-(1-methyl-1H-imidazol-4-yl)-2-{[2-(trifluoromethyl)phenyl]methoxy}pyrido[3,4-d]pyrimidin-4-ol] | ≤ 100 nM
10 | CNCC(=O)N1CC[C@H](n2cc(Oc3nc(O)c4ccncc4n3)cn2)C1 [Example 144, 1-[(3S)-3-[4-({4-hydroxypyrido[3,4-d]pyrimidin-2-yl}oxy)-1H-pyrazol-1-yl]pyrrolidin-1-yl]-2-(methylamino)ethan-1-one] | ≤ 100 nM
11 | Oc1nc(Oc2cnn([C@@H]3CCCN(Cc4ccccc4)C3)c2)nc2cnccc12 [Example 158, 2-({1-[(3R)-1-benzylpiperidin-3-yl]-1H-pyrazol-4-yl}oxy)pyrido[3,4-d]pyrimidin-4-ol] | ≤ 100 nM
12 | Oc1nc(Oc2cnn([C@H]3CCCNC3)c2)nc2cnccc12 [Example 160, 2-({1-[(3S)-piperidin-3-yl]-1H-pyrazol-4-yl}oxy)pyrido[3,4-d]pyrimidin-4-ol] | ≤ 100 nM
13 | O=C(CO)N1CC[C@H](n2cc(Oc3nc(O)c4ccncc4n3)cn2)C1 [Example 155, 2-hydroxy-1-[(3S)-3-[4-({4-hydroxypyrido[3,4-d]pyrimidin-2-yl}oxy)-1H-pyrazol-1-yl]pyrrolidin-1-yl]ethan-1-one] | ≤ 100 nM
14 | C[C@H](c1ccccc1F)n1cc(Oc2nc(O)c3ccncc3n2)cn1 [Example 119, 2-({1-[(1R)-1-(2-fluorophenyl)ethyl]-1H-pyrazol-4-yl}oxy)pyrido[3,4-d]pyrimidin-4-ol] | ≤ 100 nM
15 | Oc1nc(OCc2c(Cl)cccc2Cl)nc2cnccc12 [Example 172, 2-[(2,6-dichlorophenyl)methoxy]pyrido[3,4-d]pyrimidin-4-ol] | 1000 to 10000 nM
16 | Oc1nc(Oc2cnn([C@@H]3CCN(Cc4ccccc4)C3)c2)nc2cnccc12 [Example 133, 2-({1-[(3R)-1-benzylpyrrolidin-3-yl]-1H-pyrazol-4-yl}oxy)pyrido[3,4-d]pyrimidin-4-ol] | ≤ 100 nM
17 | Oc1nc(Oc2cnn(C3CCN(Cc4ccccc4)CC3)c2)nc2cnccc12 [Example 123, 2-{[1-(1-benzylpiperidin-4-yl)-1H-pyrazol-4-yl]oxy}pyrido[3,4-d]pyrimidin-4-ol] | ≤ 100 nM
18 | CC(=O)N1CCC[C@@H](n2cc(Oc3nc(O)c4ccncc4n3)cn2)C1 [Example 153, 1-[(3R)-3-[4-({4-hydroxypyrido[3,4-d]pyrimidin-2-yl}oxy)-1H-pyrazol-1-yl]piperidin-1-yl]ethan-1-one] | ≤ 100 nM
19 | N#CCC(=O)N1CC[C@H](n2cc(Oc3nc(O)c4ccncc4n3)cn2)C1 [Example 140, 3-[(3S)-3-[4-({4-hydroxypyrido[3,4-d]pyrimidin-2-yl}oxy)-1H-pyrazol-1-yl]pyrrolidin-1-yl]-3-oxopropanenitrile] | ≤ 100 nM
20 | Oc1nc(Oc2cnn([C@@H]3CCCN(c4ccc(F)cc4)C3)c2)nc2cnccc12 [Example 159, 2-({1-[(3R)-1-(4-fluorophenyl)piperidin-3-yl]-1H-pyrazol-4-yl}oxy)pyrido[3,4-d]pyrimidin-4-ol] | ≤ 100 nM
21 | O=C(C1CCNCC1)N1CC[C@H](n2cc(Oc3nc(O)c4ccncc4n3)cn2)C1 [Example 143, 2-({1-[(3S)-1-(piperidine-4-carbonyl)pyrrolidin-3-yl]-1H-pyrazol-4-yl}oxy)pyrido[3,4-d]pyrimidin-4-ol] | ≤ 100 nM
22 | Cn1cnc(-c2nccc3c(O)nc(O[C@H](c4ccccc4)C(F)(F)F)nc23)c1 [Example 108, 8-(1-methyl-1H-imidazol-4-yl)-2-[(1R)-2,2,2-trifluoro-1-phenylethoxy]pyrido[3,4-d]pyrimidin-4-ol] | 1000 to 10000 nM
23 | Oc1nc(Oc2cnn([C@H]3CCCN(Cc4ccccc4)C3)c2)nc2cnccc12 [Example 168, 2-({1-[(3S)-1-benzylpiperidin-3-yl]-1H-pyrazol-4-yl}oxy)pyrido[3,4-d]pyrimidin-4-ol] | ≤ 100 nM
24 | Cn1cnc(-c2nccc3c(O)nc(O[C@@H](c4ccccc4)C(F)(F)F)nc23)c1 [Example 109, 8-(1-methyl-1H-imidazol-4-yl)-2-[(1S)-2,2,2-trifluoro-1-phenylethoxy]pyrido[3,4-d]pyrimidin-4-ol] | 1000 to 10000 nM
25 | O=S(=O)(C1CC1)N1CC[C@@H](n2cc(Oc3nc(O)c4ccncc4n3)cn2)C1 [Example 127, 2-({1-[(3R)-1-(cyclopropanesulfonyl)pyrrolidin-3-yl]-1H-pyrazol-4-yl}oxy)pyrido[3,4-d]pyrimidin-4-ol] | ≤ 100 nM
